Earlier results, collected in PMC8597174 (Clinical Pharmacology in Drug Development, 2021).

Substance: salmon calcitonin
- Effect of dosing after meal intake on maximum concentration and AUC: significant reduction in maximum concentration and AUC
